Data: ChEMBL document CHEMBL1131557 (Bioorg Med Chem Lett, 1998)

Experiments:
Histamine H3 receptor = Histamine H3 receptor (Cavia porcellus, UniProt Q9JI35); experiment: Inhibition of [3H]N-alpha-methylhistamine binding to guinea pig brain Histamine H3 receptor
[1] = molecular target: Histamine H1 receptor (Cavia porcellus) (UniProt P31389); experiment: H1-mediated bronchoconstrictor effect after intravenous administration in anesthetized guinea pig; type: functional, organism-based; conditions: Lung
[2] = molecular target: Histamine H1 receptor (Cavia porcellus) (UniProt P31389); conditions: Ileum
Description: In vitro effective concentration for H1-mediated contraction of guinea pig ileum

[3] = molecular target: Histamine H3 receptor (Cavia porcellus) (UniProt Q9JI35); conditions: Ileum
Description: (§1) In vitro effective concentration for H-3-mediated contraction of guinea pig ileum

Histamine H1 receptor = Histamine H1 receptor (Cavia porcellus, UniProt P31389); experiment: Binding affinity to H-1 receptor was determined in guinea pig brain tissue using [3H]- […] ligand
[4] = molecular target: Histamine H3 receptor (Cavia porcellus) (UniProt Q9JI35); conditions: Ileum; remark: listed apart in the source
Description: as §1

[5] = molecular target: Histamine H1 receptor (Cavia porcellus) (UniProt P31389); conditions: Ileum; remark: listed apart in the source
Description: In vitro effective concentration for H-1-mediated contraction of guinea pig ileum

Sequence of Histamine H1 receptor (Cavia porcellus) (P31389 whole entry): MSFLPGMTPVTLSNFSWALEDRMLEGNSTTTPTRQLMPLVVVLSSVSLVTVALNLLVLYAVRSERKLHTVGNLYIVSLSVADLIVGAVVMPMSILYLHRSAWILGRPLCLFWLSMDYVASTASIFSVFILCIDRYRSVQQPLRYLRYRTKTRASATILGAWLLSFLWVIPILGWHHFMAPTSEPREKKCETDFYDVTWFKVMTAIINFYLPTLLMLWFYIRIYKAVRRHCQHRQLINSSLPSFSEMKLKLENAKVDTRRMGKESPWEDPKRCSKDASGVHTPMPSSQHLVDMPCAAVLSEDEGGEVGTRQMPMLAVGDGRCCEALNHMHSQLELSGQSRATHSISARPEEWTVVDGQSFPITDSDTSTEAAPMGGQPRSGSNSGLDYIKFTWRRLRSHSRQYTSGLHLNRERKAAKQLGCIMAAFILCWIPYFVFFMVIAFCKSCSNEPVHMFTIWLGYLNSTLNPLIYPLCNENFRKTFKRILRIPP
Sequence of Histamine H3 receptor (Q9JI35 whole entry): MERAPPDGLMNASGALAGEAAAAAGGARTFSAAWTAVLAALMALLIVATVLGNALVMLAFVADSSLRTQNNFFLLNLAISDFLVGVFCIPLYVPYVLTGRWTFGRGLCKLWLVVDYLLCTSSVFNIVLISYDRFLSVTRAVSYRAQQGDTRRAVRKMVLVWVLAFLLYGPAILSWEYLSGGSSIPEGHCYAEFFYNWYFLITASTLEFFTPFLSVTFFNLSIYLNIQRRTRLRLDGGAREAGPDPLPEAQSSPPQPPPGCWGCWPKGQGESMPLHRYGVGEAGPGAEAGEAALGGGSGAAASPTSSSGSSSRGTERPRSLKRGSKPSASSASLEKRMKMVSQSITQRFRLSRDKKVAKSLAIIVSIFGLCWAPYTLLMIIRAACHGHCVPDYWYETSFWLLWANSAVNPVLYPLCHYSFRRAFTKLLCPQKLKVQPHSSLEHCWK
Sequence of Histamine H1 receptor (P31389 whole entry): as the sequence (P31389 whole entry) above
Sequence of Histamine H3 receptor (Cavia porcellus) (Q9JI35 whole entry): as the sequence (Q9JI35 whole entry) above

SMILES | Ki (Histamine H3 receptor) [nM] | other results
C[C@H]1NCCC[C@@H]1c1cnc[nH]1 | > 2000 | –
C[C@H]1CNC[C@H]1c1c[nH]cn1 | 3 | –
C[C@H]1NC[C@@H]1c1c[nH]cn1 | 7 | ED50 [1]: > 0.3 mg/kg
C[C@@H]1NCC[C@@H]1c1c[nH]cn1 | 59 | –
CC[C@H]1NCC[C@@H]1c1cnc[nH]1 | 150 | –
c1ccc(C[C@H]2NCC[C@@H]2c2c[nH]cn2)cc1 | > 2000 | –
C[C@@H](N)Cc1c[nH]cn1 | – | pD2 [2]: 5.4; pD2 [3]: 8.2; Ki (Histamine H1 receptor): > 10000 nM
C[C@H]1C[C@H](c2cnc[nH]2)CN1 | 76 | –
C[C@H]1NCC[C@@H]1c1c[nH]cn1 | 3 | –
C[C@H]1CNC[C@@H]1c1c[nH]cn1 | 2.3 | pD2 [4]: 7.5; pD2 [5]: < 4; Ki (Histamine H1 receptor): > 10000 nM
C[C@]1(c2c[nH]cn2)CCNC1 | 170 | –
c1nc(C2CCNC2)c[nH]1 (stereo not given) | 2 | ED50 [1]: 0.3 mg/kg
C[C@@H]1CNC[C@H]1c1cnc[nH]1 | 5 | –
